Laboratory results published in BindingDB's records for doi:10.7270/Q2TH8K43 (Burnham Center For Chemical Genomics, 2010).

biological target: Nucleotide-binding oligomerization domain-containing protein 2 (Homo sapiens, UniProt Q9HC29); experiment: PubChem AID 2334
Sequence (Q9HC29 whole entry, the tested form may be a part): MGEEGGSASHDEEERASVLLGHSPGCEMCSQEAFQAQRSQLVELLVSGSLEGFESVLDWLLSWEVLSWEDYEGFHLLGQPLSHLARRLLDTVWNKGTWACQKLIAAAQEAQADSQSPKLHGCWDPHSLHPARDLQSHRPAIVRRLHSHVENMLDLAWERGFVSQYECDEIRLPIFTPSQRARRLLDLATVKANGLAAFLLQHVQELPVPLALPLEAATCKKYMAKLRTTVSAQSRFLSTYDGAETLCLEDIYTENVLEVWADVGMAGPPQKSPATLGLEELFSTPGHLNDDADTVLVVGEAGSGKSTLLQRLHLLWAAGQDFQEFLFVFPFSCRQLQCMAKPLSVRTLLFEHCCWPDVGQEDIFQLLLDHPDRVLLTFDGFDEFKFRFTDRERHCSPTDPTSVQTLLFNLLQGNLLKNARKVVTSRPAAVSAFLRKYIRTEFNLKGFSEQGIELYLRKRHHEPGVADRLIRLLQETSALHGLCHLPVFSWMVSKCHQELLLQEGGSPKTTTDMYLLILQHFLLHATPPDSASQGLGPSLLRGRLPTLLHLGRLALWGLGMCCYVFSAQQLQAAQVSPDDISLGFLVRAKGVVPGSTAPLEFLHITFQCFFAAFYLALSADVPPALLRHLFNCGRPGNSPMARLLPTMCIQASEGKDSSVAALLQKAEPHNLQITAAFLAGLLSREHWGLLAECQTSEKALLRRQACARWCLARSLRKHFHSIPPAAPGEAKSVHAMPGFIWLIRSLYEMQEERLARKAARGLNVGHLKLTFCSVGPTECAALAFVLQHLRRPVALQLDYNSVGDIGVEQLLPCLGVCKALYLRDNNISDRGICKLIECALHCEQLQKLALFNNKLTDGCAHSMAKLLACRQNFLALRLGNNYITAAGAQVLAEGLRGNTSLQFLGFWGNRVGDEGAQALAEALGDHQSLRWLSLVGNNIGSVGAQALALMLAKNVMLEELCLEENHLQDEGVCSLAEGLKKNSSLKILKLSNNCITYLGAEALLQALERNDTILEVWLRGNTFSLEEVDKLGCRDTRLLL

How did the IC50 turn out when `Cc1ccc(C)c(SCC(=O)OCC(=O)C(C#N)c2nc3ccccc3[nH]2)c1` (stereo unspecified) [MLS000392255] was run?
Its IC50 is greater than 20 µM.

How did the IC50 turn out when `N#CC(C(=O)COC(=O)CSc1ccc(Cl)cc1)c1nc2ccccc2[nH]1` (stereo unspecified) [MLS-0208254.0001] was run?
The IC50 was greater than 20 µM.

For `N#CC(C(=O)COC(=O)CSc1ccc2ccccc2c1)c1nc2ccccc2[nH]1` (stereo unspecified) [[3-cyano-3-(1,3-dihydrobenzimidazol-2-ylidene)-2-oxopropyl] 2-naphthalen-2-ylsulfanylacetate], which IC50 is on record?
Its IC50 is greater than 20 µM.

How did the IC50 turn out when `Cc1cc(SCC(=O)OCC(=O)C(C#N)c2nc3ccccc3[nH]2)c(C)cc1Br` (stereo unspecified) was run?
The IC50 was greater than 20 µM.

`Cc1cc(Br)ccc1SCC(=O)OCC(=O)C(C#N)c1nc2ccccc2[nH]1` (stereo unspecified) [2-[(4-bromo-2-methylphenyl)thio]acetic acid [3-cyano-3-(1,3-dihydrobenzimidazol-2-ylidene)-2-oxopropyl] ester] was tested. Which IC50 did it give?
The IC50 was greater than 20 µM.

`Cc1ccc(O)c(/N=C/C2=CC(Cc3ccccc3)C=C([N+](=O)[O-])C2=O)c1` (stereo unspecified) [(6E)-6-[[(5-methyl-2-oxidanyl-phenyl)amino]methylidene]-2-nitro-4-(phenylmethyl)cyclohexa-2,4-dien-1-one] was tested. Which IC50 did it give?
The IC50 was greater than 20 µM.
